Laboratory results reported in patent US20060079453A1, “Hla binding peptides and their uses” (priority 2002, published 2006).
Like-named read-outs stand apart in the source and are kept apart here. No end group written: not given here.

Columns and labels:
Assay in all cases: biochemical
Type in all cases: binding
HLA-DR DRB4*0101 (DR53) = HLA-DR DRB4*0101 (DR53) (Homo sapiens, UniProt P01903+P13762, G164S); conditions: DRB4 *0101
HLA-DR DRB1*0101 (DR1) = HLA-DR DRB1*0101 (DR1) (Homo sapiens, UniProt P01903+P01911, A100R/D57E/F55L/F60I/F76Y/I96L/L162R/M171V/P40L/Q125E/R42F/V115G/Y59C)
HLA-DR DRB1*0701 (DR7) = HLA-DR DRB1*0701 (DR7) (Homo sapiens, UniProt P01903+P01911, A100R/A102G/A103Q/D57E/D86V/E43K/F76Y/K127E/L162R/M171V/P40G/Q125H/Q99D/R33Q/R42Y/R54Q/S133A/S66F/T210M/V115G/Y107V/Y59L/Y89S)
HLA-DR DRB1*0802 (DR8) = HLA-DR DRB1*0802 (DR8) (Homo sapiens, UniProt P01903+P01911, A100R/A103L/A169T/F76Y/H45Y/I96F/K41T/L162R/M171V/P40S/Q125H/Q178H/Q39Y/Q99D/R218S/R42G/S66Y/V115G/W38E)
HLA-DR DRB1*1302 (DR13) = HLA-DR DRB1*1302 (DR13) (Homo sapiens, UniProt P01903+P01911, A100E/A169T/K41T/L162R/M171V/P40S/Q125H/Q178H/Q39Y/Q99D/R42S/S66N/T262R/V115G/W38E/Y61H); conditions: DRBI *1302
HLA-DR DRB1*1302 (DR13), sequence (P01903 26-254 limits assumed, other chains not shown): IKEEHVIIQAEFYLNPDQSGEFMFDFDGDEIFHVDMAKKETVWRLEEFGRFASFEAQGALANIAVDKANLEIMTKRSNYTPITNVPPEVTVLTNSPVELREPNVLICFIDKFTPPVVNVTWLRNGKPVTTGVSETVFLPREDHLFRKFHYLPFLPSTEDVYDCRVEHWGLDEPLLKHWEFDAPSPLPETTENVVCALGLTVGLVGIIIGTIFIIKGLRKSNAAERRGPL

HLA-DR DRB1*0301 (DR3) = HLA-DR DRB1*0301 (DR3) (Homo sapiens, UniProt P01903+P01911, A100K/A102G/A103R/A169T/F55Y/I96L/K41T/L162R/M171V/P40S/Q125H/Q178H/Q39Y/R42S/S66N/T106N/T262R/W38E/Y61H)
HLA-DR DRB1*0301 (DR3), sequence (P01903 26-254 limits assumed, other chains not shown): as above

HLA-DR DRB1*0401 (DR4) = HLA-DR DRB1*0401 (DR4) (Homo sapiens, UniProt P01903+P01911, A100K/A169T/F76Y/I96L/K127E/L162R/M171V/N62H/P40V/Q125Y/R42H/S133A/S149N/S66Y/V115G/V209L/W38E)
HLA-DR DRB1*0901 (DR9) = HLA-DR DRB1*0901 (DR9) (Homo sapiens, UniProt P01903+P01911, A100R/A103E/D57H/D86V/F55Y/F60I/F76Y/I96F/K127E/L162R/M171V/P40D/Q125H/Q99R/R33Q/R42F/S133A/S66N/T210M/V115G/W38K/Y107V/Y59G/Y89S)
HLA-DR DRB5*0101 (DR51) = HLA-DR DRB5*0101 (DR51) (Homo sapiens, UniProt P01903+Q30154); conditions: DRB5 *0101
HLA-DR DRB1*1501 (DR15) = HLA-DR DRB1*1501 (DR15) (Homo sapiens, UniProt P01903+P01911); conditions: DRBI *1501
HLA-DR DRB1*1101 (DR11) = HLA-DR DRB1*1101 (DR11) (Homo sapiens, UniProt P01903+P01911, A100R/A169T/A87E/I96F/K41T/L162R/M171V/P40S/Q125H/Q178H/Q39Y/Q99D/R42S/S66Y/T262R/V115G/W38E); conditions: DRB1 *1101
HLA-DR DRB1*1101 (DR11), sequence (P01903 26-254 limits assumed, other chains not shown): as above

| Molecule | IC50 (HLA-DR DRB4*0101 (DR53)) | IC50 (HLA-DR DRB1*0101 (DR1); DRB1 *0101) | IC50 (HLA-DR DRB1*0701 (DR7); DRB1 *0701) | IC50 (HLA-DR DRB1*0802 (DR8)) | IC50 (HLA-DR DRB1*1302 (DR13)) | IC50 (HLA-DR DRB1*0401 (DR4); DRB1 *0401) | IC50 (HLA-DR DRB5*0101 (DR51)) | IC50 (HLA-DR DRB1*1501 (DR15)) | also measured |
| --- | --- | --- | --- | --- | --- | --- | --- | --- | --- |
| LYYLFNQHIKKELYH | 1.09 µM | 0.027 µM | 10.2 µM | 1.77 µM | 0.327 µM | – | – | – | – |
| GGVLVNEILNHMK | – | – | – | – | – | – | – | – | IC50 (HLA-DR DRB1*0301 (DR3); read-out: DRB1 *0301): 0.7 µM; IC50 (HLA-DR DRB1*0401 (DR4); read-out: DRB1 *0401): 0.359 µM; IC50 (HLA-DR DRB1*0901 (DR9); read-out: DRB1 *0901): 54.4 µM; IC50 (HLA-DR DRB1*0701 (DR7); read-out: DRB1 *0701): 29.5 µM |
| KKNIIALLIIPPKIIA | – | – | – | – | – | – | – | – | IC50 (HLA-DR DRB1*0101 (DR1); read-out: DRB1 *0101): 0.013 µM; IC50 (HLA-DR DRB1*0701 (DR7); read-out: DRB1 *0701): 0.495 µM; IC50 (HLA-DR DRB1*0802 (DR8); read-out: DRB1 *0802): 0.157 µM |
| KCLVISQVSNSDSYK | 0.081 µM | 0.628 µM | 46.4 µM | 17.9 µM | 0.236 µM | 0.016 µM | > 42.6 µM | – | – |
| NYELSKKAVIFTPIY | – | 0.713 µM | 5.5 µM | 0.141 µM | – | 0.536 µM | – | – | – |
| NHLINTPKIMPHHII | 1.63 µM | – | – | 1.3 µM | – | 4.8 µM | 8.88 µM | 0.56 µM | – |
| AVGLPSTPVHPIGYY | – | – | – | – | – | – | – | – | IC50 (HLA-DR DRB1*0101 (DR1); read-out: DRB1 *0101): 0.0036 µM; IC50 (HLA-DR DRB1*0401 (DR4); read-out: DRB1 *0401): 4.19 µM; IC50 (HLA-DR DRB1*0802 (DR8); read-out: DRB1 *0802): 4.43 µM |
| TYSYSFDSLFSAVKN | – | – | – | – | – | – | – | – | IC50 (HLA-DR DRB1*0401 (DR4); read-out: DRB1 *0401): 0.073 µM; IC50 (HLA-DR DRB1*0802 (DR8); read-out: DRB1 *0802): 2.26 µM |
| DIRILQELLMGSFGI | 0.016 µM | 0.088 µM | 1.59 µM | – | 5.8 µM | – | > 55.1 µM | 1.62 µM | IC50 (HLA-DR DRB1*0301 (DR3)): 3.25 µM; IC50 (HLA-DR DRB1*1101 (DR11)): 19 µM |
| VYDFAFADLTVVYRE | 10.7 µM | 0.173 µM | 7.01 µM | – | > 13.1 µM | – | – | 9.45 µM | IC50 (HLA-DR DRB1*0901 (DR9); DRB1 *0901): 0.155 µM; IC50 (HLA-DR DRB1*1101 (DR11)): > 18 µM |
| QKQLLTNHLINTPK | – | – | – | – | – | – | – | – | IC50 (HLA-DR DRB1*0701 (DR7); read-out: DRB1 *0701): 4.41 µM; IC50 (HLA-DR DRB1*0802 (DR8); read-out: DRB1 *0802): 21 µM |
| GVIYIMIISKKMMRK | 0.157 µM | 0.01 µM | – | 0.137 µM | – | 0.022 µM | 0.046 µM | 0.173 µM | – |
| CC(C)C[C@H](NC(=O)[C@H](CCC(N)=O)NC(=O)[C@H](CCC(N)=O)NC(=O)[C@@H](N)Cc1ccccc1)C(=O)N[C@@H](Cc1ccccc1)C(=O)N[C@@H](CC(C)C)C(=O)N[C@@H](CC(N)=O)C(=O)N[C@H](C(=O)N[C@@H](CC(C)C)C(=O)N[C@@H](CO)C(=O)N[C@@H](Cc1ccccc1)C(=O)N[C@H](C(=O)N[C@@H](CS)C(=O)N1CCC[C@H]1C(=O)N[C@@H](Cc1c[nH]c2ccccc12)C(=O)O)C(C)C)[C@@H](C)O | – | – | – | – | 0.0093 µM | – | – | 24.8 µM | IC50 (HLA-DR DRB1*0901 (DR9); DRB1 *0901): 2.06 µM |
| KKCLNEILIRCHCQ | – | – | – | – | – | – | – | – | IC50 (HLA-DR DRB1*0101 (DR1); read-out: DRB1 *0101): 9.36 µM; IC50 (HLA-DR DRB1*0901 (DR9); read-out: DRB1 *0901): 4 µM |
| MNALRRLPVICSFLV | 0.0057 µM | 0.0021 µM | – | 0.265 µM | – | 0.013 µM | 2.56 µM | 0.036 µM | – |
| KEYVLDLYPEPTDLY | – | 5.95 µM | > 72.3 µM | – | > 14.8 µM | 0.131 µM | > 55.1 µM | 3.17 µM | IC50 (HLA-DR DRB1*0901 (DR9); DRB1 *0901): > 49.9 µM; IC50 (HLA-DR DRB1*1101 (DR11)): > 59.2 µM |
| LQQMLLGTLQVVCPG | 1.01 µM | 0.168 µM | 0.929 µM | – | 0.395 µM | 1.5 µM | 29.2 µM | – | IC50 (HLA-DR DRB1*0901 (DR9); DRB1 *0901): 1.69 µM; IC50 (HLA-DR DRB1*1101 (DR11)): > 31.6 µM |
| RTVYRDNNPYGVCIM | – | – | – | – | – | – | – | – | IC50 (HLA-DR DRB1*0101 (DR1); read-out: DRB1 *0101): 0.524 µM; IC50 (HLA-DR DRB1*0401 (DR4); read-out: DRB1 *0401): 0.02 µM; IC50 (HLA-DR DRB1*0901 (DR9); read-out: DRB1 *0901): 24.1 µM |
| LKELIKVGLPSFENL | 0.11 µM | 0.099 µM | 0.542 µM | 1.49 µM | – | 0.163 µM | 41.3 µM | 0.361 µM | – |
| YILLKKILSSRFNQM | 0.34 µM | 0.22 µM | 0.0083 µM | 0.018 µM | – | 0.183 µM | 0.083 µM | 0.026 µM | – |
| QLQQFQKEDAAVTLY | – | – | – | – | – | – | – | – | IC50 (HLA-DR DRB1*0101 (DR1); read-out: DRB1 *0101): 0.085 µM; IC50 (HLA-DR DRB1*0901 (DR9); read-out: DRB1 *0901): 55.4 µM; IC50 (HLA-DR DRB1*0701 (DR7); read-out: DRB1 *0701): 0.5 µM |
